Where two headings read alike, the source gives them in different places. Square brackets hold non-standard residues; d marks the D form. Peptide text beside a SMILES is read from it. * marks the point of attachment. C18 diacid = O=C(O)CCCCCCCCCCCCCCCCC(=O)*; AEEA = NCCOCCOCC(=O)O; Inp = O=C(O)C1CCNCC1
How the values were obtained:
amylin receptor (hAMY3R) = molecular target: T1, amylin receptor (hAMY3R) (Homo sapiens, UniProt O60896+P30988); assay: Amylin receptor agonism testing, CRE-luciferase assay in stably transfected CHO-K1/Ga15/AMY3 cells; format: cell-based; conditions: for Fold change in activity against hAMY3R: relative to D1 as benchmark; for increase in the ratio of activity against the amylin receptor to agonistic activity against the calcitonin receptor: relative to the benchmark D1; for EC50: incubation of 24 hours, Table 3, read-out: EC50, activity against the amylin receptor in cells
T1 construct: host or cells: CHO-K1/Ga15/AMY3 cells, further stably transfected with a CRE-luciferase plasmid
T1 sequence (P30988 25-474): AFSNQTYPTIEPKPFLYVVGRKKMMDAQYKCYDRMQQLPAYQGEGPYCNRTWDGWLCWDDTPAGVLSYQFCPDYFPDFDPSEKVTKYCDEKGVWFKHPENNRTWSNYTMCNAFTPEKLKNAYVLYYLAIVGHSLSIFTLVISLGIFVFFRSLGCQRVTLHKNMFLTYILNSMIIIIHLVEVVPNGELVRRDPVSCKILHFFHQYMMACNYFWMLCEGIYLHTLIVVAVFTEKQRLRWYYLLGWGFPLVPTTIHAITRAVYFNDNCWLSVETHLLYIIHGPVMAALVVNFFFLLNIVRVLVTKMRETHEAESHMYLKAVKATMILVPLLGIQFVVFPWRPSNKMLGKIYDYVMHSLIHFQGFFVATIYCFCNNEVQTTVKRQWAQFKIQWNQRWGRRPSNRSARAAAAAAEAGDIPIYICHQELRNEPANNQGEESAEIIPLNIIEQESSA
T1 sequence (O60896 24-148): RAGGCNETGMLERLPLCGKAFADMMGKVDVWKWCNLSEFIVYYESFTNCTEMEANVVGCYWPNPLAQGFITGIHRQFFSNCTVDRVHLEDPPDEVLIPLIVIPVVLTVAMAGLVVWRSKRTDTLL

[1] = molecular target: T2, calcitonin receptor (hCTR) (Homo sapiens, UniProt P30988); assay: Calcitonin receptor agonism, CRE-luciferase assay in stably transfected CHO-K1/CALCR/Ga15 cells; format: cell-based; conditions: for Fold change in activity against hCTR: relative to D1 as benchmark
T2 construct: host or cells: CHO-K1/CALCR/Ga15 cells, further stably transfected with a CRE-luciferase plasmid
T2 sequence (P30988 25-474): T1 sequence (P30988 25-474)

[2] = Heat accelerated stability assay of polypeptide solutions (40° C., pH about 7.4), reversed phase chromatography; format: physicochemical; conditions: 40° C.; for Concentration change on 7 d / Concentration change on 26 d: pH about 7.4, 1 mg/mL; for Concentration change on 7 d / Purity change on 7 d: Day 7; for Concentration change on 26 d / Purity change on 26 d: Day 26; for Purity change on 7 d / Purity change on 26 d: reversed phase chromatography 214 nm; for Purity change on 7 d: purity on 7 d − purity on 0 d; for Purity change on 26 d: purity on 26 d − purity on 0 d
Outline: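 Polypeptide derivative lyophilisate (1 mg/mL) with sodium dihydrogen phosphate (1.42 mg/mL) in water, pH about 7.4, sterile-filtered, vialed and held at 40° C; sampled on days 7 and 26. After centrifugation, concentration and purity (target/total peak area) by C18 RP-HPLC, TFA/ACN gradient, 280 and 214 nm.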

[3] = incubation of 24 hours, Table 4, read-out: EC50, activity against the calcitonin receptor in cells

Compound | Fold change in activity against hAMY3R (amylin receptor (hAMY3R)) | increase in the ratio of activity against the amylin receptor to agonistic activity against the calcitonin receptor (amylin receptor (hAMY3R)) | EC50 [1, 3] | Fold change in activity against hCTR [1] | Concentration change on 7 d [2] | Concentration change on 26 d [2] | Purity change on 7 d [2] | Purity change on 26 d [2] | EC50 (amylin receptor (hAMY3R)) | increase in agonistic activity against the amylin receptor (amylin receptor (hAMY3R); compared with M17) | EC50 ([1]; Table 5 integrated analysis, read-out: hCTR EC50)
CC(C)C[C@H](NC(=O)[C@H](CCCNC(=N)N)NC(=O)CNC(=O)[C@H](CC(C)C)NC(=O)[C@@H](NC(=O)[C@H](C)NC(=O)[C@@H](NC(=O)[C@H](CO)NC(=O)[C@H](CC(C)C)NC(=O)[C@H](CCC(N)=O)NC(=O)[C@H](CO)NC(=O)[C@H](C)NC(=O)C1CCN(C(=O)CCCCCCCCCCCCCCCCC(=O)O)CC1)[C@@H](C)O)C(C)C)C(=O)N[C@@H](CO)C(=O)N[C@@H](CC(=O)O)C(=O)N[C@@H](CCC(=O)O)C(=O)N[C@@H](CC(C)C)C(=O)N[C@@H](Cc1c[nH]cn1)C(=O)N[C@@H](CCCNC(=N)N)C(=O)N[C@@H](CC(C)C)C(=O)N[C@@H](CCC(N)=O)C(=O)N[C@@H](CC(=O)O)C(=O)N[C@@H](Cc1ccc(O)cc1)C(=O)N1CCC[C@H]1C(=O)N[C@@H](CCCNC(=N)N)C(=O)N[C@H](C(=O)N[C@@H](CC(=O)O)C(=O)N[C@H](C(=O)NCC(=O)N[C@@H](CO)C(=O)NCC(=O)N[C@@H](CO)C(=O)N1CCC[C@H]1C(N)=O)C(C)C)[C@@H](C)O [M17] ({C18 diacid-Inp}-ASQLSTAVLGRLSDELHRLQDYPRTDVGSGSP-NH2) | 0.571 | 1.7 fold | 0.259 nM | 0.332 | −1.927% | −5.985% | −1% | −3.9% | – | – | –
CC(C)C[C@H](NC(=O)[C@H](CCCNC(=N)N)NC(=O)CNC(=O)[C@H](CC(C)C)NC(=O)[C@@H](NC(=O)[C@H](C)NC(=O)[C@@H](NC(=O)[C@H](CO)NC(=O)[C@H](CC(C)C)NC(=O)[C@H](CCC(N)=O)NC(=O)[C@H](CO)NC(=O)[C@H](C)NC(=O)COCCOCCNC(=O)COCCOCCNC(=O)[C@H](CCC(=O)O)NC(=O)CCCCCCCCCCCCCCCCC(=O)O)[C@@H](C)O)C(C)C)C(=O)N[C@@H](CO)C(=O)N[C@@H](CC(=O)O)C(=O)N[C@@H](CCC(=O)O)C(=O)N[C@@H](CC(C)C)C(=O)N[C@@H](Cc1c[nH]cn1)C(=O)N[C@@H](CCCNC(=N)N)C(=O)N[C@@H](CC(C)C)C(=O)N[C@@H](CCC(N)=O)C(=O)N[C@@H](CC(=O)O)C(=O)N[C@@H](Cc1ccc(O)cc1)C(=O)N1CCC[C@H]1C(=O)N[C@@H](CCCNC(=N)N)C(=O)N[C@H](C(=O)N[C@@H](CC(=O)O)C(=O)N[C@H](C(=O)NCC(=O)N[C@@H](CO)C(=O)NCC(=O)N[C@@H](CO)C(=O)N1CCC[C@H]1C(N)=O)C(C)C)[C@@H](C)O [M24] ({C18 diacid}-E[AEEA][AEEA]ASQLSTAVLGRLSDELHRLQDYPRTDVGSGSP-NH2) | 5.143 | – | 0.081 nM | 1.061 | – | −3.954% | −1.59% | −7.24% | 7 pM | – | –
CC(C)C[C@H](NC(=O)[C@H](CCCNC(=N)N)NC(=O)CNC(=O)[C@H](CC(C)C)NC(=O)[C@@H](NC(=O)[C@H](C)NC(=O)[C@@H](NC(=O)[C@H](CO)NC(=O)[C@H](CC(C)C)NC(=O)[C@H](CCC(N)=O)NC(=O)[C@H](CO)NC(=O)[C@H](C)NC(=O)COCCOCCNC(=O)COCCOCCNC(=O)[C@H](CC(=O)O)NC(=O)CCCCCCCCCCCCCCCCC(=O)O)[C@@H](C)O)C(C)C)C(=O)N[C@@H](CO)C(=O)N[C@@H](CC(=O)O)C(=O)N[C@@H](CCC(=O)O)C(=O)N[C@@H](CC(C)C)C(=O)N[C@@H](Cc1c[nH]cn1)C(=O)N[C@@H](CCCNC(=N)N)C(=O)N[C@@H](CC(C)C)C(=O)N[C@@H](CCC(N)=O)C(=O)N[C@@H](CC(=O)O)C(=O)N[C@@H](Cc1ccc(O)cc1)C(=O)N1CCC[C@H]1C(=O)N[C@@H](CCCNC(=N)N)C(=O)N[C@H](C(=O)N[C@@H](CC(=O)O)C(=O)N[C@H](C(=O)NCC(=O)N[C@@H](CO)C(=O)NCC(=O)N[C@@H](CO)C(=O)N1CCC[C@H]1C(N)=O)C(C)C)[C@@H](C)O [M26] ({C18 diacid}-D[AEEA][AEEA]ASQLSTAVLGRLSDELHRLQDYPRTDVGSGSP-NH2) | – | – | 0.024 nM | – | −2.402% | −2.235% | −2.39% | −2.68% | 8 pM | – | –
CC(C)C[C@H](NC(=O)[C@H](CCCNC(=N)N)NC(=O)CNC(=O)[C@H](CC(C)C)NC(=O)[C@@H](NC(=O)[C@H](C)NC(=O)[C@@H](NC(=O)[C@H](CO)NC(=O)[C@H](CC(C)C)NC(=O)[C@H](CCC(N)=O)NC(=O)[C@H](CO)NC(=O)[C@H](C)NC(=O)COCCOCCNC(=O)COCCOCCNC(=O)C1CCN(C(=O)CCCCCCCCCCCCCCCCC(=O)O)CC1)[C@@H](C)O)C(C)C)C(=O)N[C@@H](CO)C(=O)N[C@@H](CC(=O)O)C(=O)N[C@@H](CCC(=O)O)C(=O)N[C@@H](CC(C)C)C(=O)N[C@@H](Cc1c[nH]cn1)C(=O)N[C@@H](CCCNC(=N)N)C(=O)N[C@@H](CC(C)C)C(=O)N[C@@H](CCC(N)=O)C(=O)N[C@@H](CC(=O)O)C(=O)N[C@@H](Cc1ccc(O)cc1)C(=O)N1CCC[C@H]1C(=O)N[C@@H](CCCNC(=N)N)C(=O)N[C@H](C(=O)N[C@@H](CC(=O)O)C(=O)N[C@H](C(=O)NCC(=O)N[C@@H](CO)C(=O)NCC(=O)N[C@@H](CO)C(=O)N1CCC[C@H]1C(N)=O)C(C)C)[C@@H](C)O [M30] ({C18 diacid-Inp-AEEA-AEEA}-ASQLSTAVLGRLSDELHRLQDYPRTDVGSGSP-NH2) | 36.000 | about 42.5 fold | – | 0.848 | – | −5.268% | No change | −4.34% | 1 pM | ~70 folds | 0.101 nM
